ChEMBL document CHEMBL5038569, “Targeting RECQL5 Functions, by a Small Molecule, Selectively Kills Breast Cancer in Vitro and in Vivo” (J Med Chem, 2021)
Active and inactive are the calls of the source. The rule behind the calls is not given here.

What was measured:
[1] = test system: MCF7; experiment: Effect on homologous recombinant repair in RECQL5 knock out human MCF7 cells assessed as accumulation of MRE11 protein on chromatin at 20 uM incubated for 4 to 24 hrs by Western blot analysis; assay type: functional, cell-based; details: time 4-24 hrs
[2] = test system: T47D; experiment: Induction of DNA damage in human T47D cells expressing wild type RECQL5 assessed as double strand breaks by measuring increase in gamma-H2AX foci formation incubated for 24 hrs by immunofluorescence microscopic analysis; assay type: functional, cell-based; details: dose 0-20 µM
[3] = test system: MCF7; experiment: Effect on NHEJ-mediated double strand break repair in human MCF7 cells expressing wild type RECQL5 assessed as accumulation of KU80 on chromatin at 20 uM measured up to 24 hrs by Western blot analysis; assay type: cell-based; details: time hrs <=24
[4] = Toxicity in nude mouse xenografted with human MCF7 cells assessed as morphological changes in liver at 50 mg/kg, po administered via oral gavage and measured after 30 days; assay type: organism-based; details: in vivo, 720 h, time 30 day
[5] = test system: MCF7; experiment: Cytotoxicity against human MCF7 cells with shRNA-mediated WRN depletion assessed as reduction in cell viability at 6 to 25 uM measured after 8 to 10 days by clonogenic survival assay; assay type: functional, cell-based; details: dose 6-25 µM, time 8-10 day
[6] = Selectivity ratio of IC20 for cytotoxicity against human MCF-10A cells expressing RECQL5 to IC20 for cytotoxicity against human MCF7 cells expressing RECQL5; assay type: toxicity, cell-based
[7] = organism: Homo sapiens; experiment: Inhibition of His-tagged human RECQL5 binding to [gamma 32P] labeled DNA substrate assessed as RECQL5-DNA complex formation at 10 uM preincubated for 30 mins followed by substrate addition and measured after 15 mins by gel electrophoresis and autoradiography method; details: time 45.0 min
[8] = test system: U2OS; experiment: Induction of apoptosis in RECQL5 depleted human U2OS cells assessed as cell death measured after 72 hrs by propidium iodide/RNase A staining based flow cytometric analysis; assay type: functional
[9] = test system: MCF7; experiment: Induction of DNA damage in human MCF7 cells expressing wild type RECQL5 assessed as double strand breaks by measuring increase in phosphorylation of RPA2 at 20 uM measured after 4 to 24 hrs by Western blot analysis; assay type: functional, cell-based; details: time 4-24 hrs, TDE = time-dependent effect
[10] = test system: T47D; experiment: Inhibition of homologous recombinant repair in human T47D cells expressing wild type RECQL5 assessed as stabilization of RAD51-RECQL5 interaction by measuring increase in RAD51 foci formation at 20 uM measured after 4 to 24 hrs by immunofluorescence microscopic analysis; assay type: functional, cell-based; details: time 4-24 hrs
[11] = target: T1, DNA repair protein RAD51 homolog 1 (Homo sapiens) (UniProt Q06609); experiment: Stabilization of RAD51 foci in human cisplatin-resistant MCF7 cells assessed as increase in RAD51 positive cells at 20 uM pretreated with cisplatin for 8 hrs followed by compound addition and measured after 24 hrs by immunofluorescence microscopic analysis; assay type: cell-based
T1 sequence (whole entry): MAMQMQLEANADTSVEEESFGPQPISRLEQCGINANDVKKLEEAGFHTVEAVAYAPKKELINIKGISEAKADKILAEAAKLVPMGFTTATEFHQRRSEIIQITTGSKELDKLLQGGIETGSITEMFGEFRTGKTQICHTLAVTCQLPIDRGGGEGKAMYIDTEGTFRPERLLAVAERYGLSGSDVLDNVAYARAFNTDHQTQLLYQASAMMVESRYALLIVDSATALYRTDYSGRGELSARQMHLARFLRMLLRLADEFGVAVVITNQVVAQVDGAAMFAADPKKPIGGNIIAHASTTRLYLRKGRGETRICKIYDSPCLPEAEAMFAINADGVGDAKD

[12] = test system: MCF7; experiment: Induction of apoptosis in human MCF7 cells expressing wild type RECQL5 assessed as fold increase in cell death at 20 uM measured after 72 hrs by propidium iodide/RNase A staining based flow cytometric analysis relative to control; assay type: functional
[13] = test system: MCF7; experiment: Reversal of RECQL5 knock out resistance phenotype in human MCF7 cells expressing RECQL5-RFP assessed as reduction in cell viability at 6 to 25 uM measured after 72 hrs by MTT assay; assay type: functional, cell-based; details: dose 6-25 µM
[14] = test system: MCF7; experiment: Antitumor activity against human MCF7 cells expressing wild type RECQL5 xenografted in nude mouse assessed as reduction in tumor growth at 50 mg/kg, po administered as single dose via gavage measured after 30 days; assay type: functional, organism-based; details: time 30.0 day, TDE = time-dependent effect
[15] = test system: MCF7; experiment: Effect on homologous recombinant repair in human MCF7 cells expressing wild type RECQL5 assessed as accumulation of MRE11 protein on chromatin at 20 uM incubated for 4 to 24 hrs by Western blot analysis; assay type: functional, cell-based; details: time 4-24 hrs, TDE = time-dependent effect
[16] = test system: MCF7; experiment: Effect on homologous recombinant repair in RECQL5 knock out human MCF7 cells assessed as accumulation of RAD50 protein on chromatin at 20 uM incubated for 4 to 24 hrs by Western blot analysis; assay type: functional, cell-based; details: time 4-24 hrs
[17] = Chronic toxicity in […] mouse assessed as effect on food/water uptake at 100 mg/kg, po administered as single dose via gavage measured for 30 days; assay type: organism-based; details: in vivo, 720 h, time 30 day
[18] = Selectivity ratio of IC20 for cytotoxicity against RECQL5 knock out human MCF7 cells to IC20 for cytotoxicity against human MCF7 cells expressing RECQL5-WT; assay type: functional
[19] = test system: MCF7; experiment: Stabilization of RECQL5-RAD51 complex in RECQL5 knock out human MCF7 cells expressing wild type RECQL5-FLAG assessed as increase in RAD51-RECQL5-FLAG pull down at 20 uM measured after 8 hrs by coimmunoprecipitation assay; assay type: cell-based
[20] = Toxicity in nude mouse xenografted with human MCF7 cells assessed as morphological changes in spleen at 50 mg/kg, po administered via oral gavage and measured after 30 days; assay type: organism-based; details: in vivo, 720 h, time 30 day
[21] = test system: MCF7; experiment: Induction of DNA damage in human MCF7 cells expressing wild type RECQL5 assessed as double strand breaks by measuring increase in gamma-H2AX foci formation incubated for 24 hrs by immunofluorescence microscopic analysis; assay type: functional, cell-based; details: dose 0-20 µM
[22] = test system: MCF7; experiment: Induction of DNA damage in RECQL5 knock out human MCF7 cells assessed as double strand breaks by measuring increase in phosphorylation of CHK1 at S345 residue at 20 uM measured up to 24 hrs by Western blot analysis; assay type: functional, cell-based; details: time hrs <=24
[23] = Chronic toxicity in […] mouse assessed as change in stool texture at 100 mg/kg, po administered as single dose via gavage measured for 30 days; assay type: organism-based; details: in vivo, 720 h, time 30 day
[24] = test system: MCF7; experiment: Induction of mitotic catastrophe phenotype in human cisplatin-resistant MCF7 cells assessed as nuclear bridge formation at 20 uM pretreated with cisplatin for 8 hrs followed by compound addition and measured after 24 hrs by immunofluorescence microscopic analysis; assay type: functional, cell-based
[25] = target: T1, DNA repair protein RAD51 homolog 1 (Homo sapiens); experiment: Stabilization of RAD51 foci in human MCF7 cells assessed as increase in RAD51 positive cells at 20 uM pretreated with cisplatin for 8 hrs followed by compound addition and measured after 24 hrs by immunofluorescence microscopic analysis; assay type: cell-based
[26] = test system: MCF7; experiment: Induction of DNA damage in human MCF7 cells expressing wild type RECQL5 assessed as double strand breaks by measuring increase in phosphorylation of CHK1 at S345 residue at 20 uM measured up to 24 hrs by Western blot analysis; assay type: functional, cell-based; details: time hrs <=24
[27] = test system: MCF7; experiment: Induction of DNA damage in human MCF7 cells expressing wild type RECQL5 assessed as double strand breaks by measuring increase in phosphorylation of p53 at S15 residue at 20 uM measured up to 24 hrs by Western blot analysis; assay type: functional, cell-based; details: time hrs <=24

O=C(Nc1cc(C(F)(F)F)cc(C(F)(F)F)c1)N[C@@H](c1ccccc1)c1nnc(SCc2ccccc2)o1
Activity [1]: inactive
Activity [2]: Dose-Dependent Effect
Activity [3]: inactive
Activity [4]: Non-Toxic
Activity [5]: Active
selectivity ratio [6]: 4
inhibition [7]: inactive
Activity [8]: inactive
Activity [9]: Tde
inhibition [10]: Active
Activity [11]: Active
fold change (FC) [12]: 2.5
Activity [13]: Active
Activity [14]: Tde
Activity [15]: Tde
Activity [16]: inactive
Activity [17]: Non-Toxic
selectivity ratio [18]: 2.7
Activity [19]: Active
Activity [20]: Non-Toxic
Activity [21]: Dose-Dependent Effect
Activity [22]: inactive
Activity [23]: Non-Toxic
Activity [24]: Active
Activity [25]: Active
Activity [26]: Active
Activity [27]: Active
